Here are results for 1 compound from publication PMC8662647, “Two Functional Epithelial Sodium Channel Isoforms Are Present in Rodents despite Pronounced Evolutionary Pseudogenization and Exon Fusion” (Molecular Biology and Evolution, 2021).

One experiment addresses T1, guinea pig αβγ-ENaC (Cavia porcellus, UniProt B8QP44+H0UT09+H0VNV9).
T1 construct: gene SCNN1A; heterotrimer in Xenopus laevis oocytes; printed GenBank ids are 5'RACE products
T1 sequence (B8QP44 1-656): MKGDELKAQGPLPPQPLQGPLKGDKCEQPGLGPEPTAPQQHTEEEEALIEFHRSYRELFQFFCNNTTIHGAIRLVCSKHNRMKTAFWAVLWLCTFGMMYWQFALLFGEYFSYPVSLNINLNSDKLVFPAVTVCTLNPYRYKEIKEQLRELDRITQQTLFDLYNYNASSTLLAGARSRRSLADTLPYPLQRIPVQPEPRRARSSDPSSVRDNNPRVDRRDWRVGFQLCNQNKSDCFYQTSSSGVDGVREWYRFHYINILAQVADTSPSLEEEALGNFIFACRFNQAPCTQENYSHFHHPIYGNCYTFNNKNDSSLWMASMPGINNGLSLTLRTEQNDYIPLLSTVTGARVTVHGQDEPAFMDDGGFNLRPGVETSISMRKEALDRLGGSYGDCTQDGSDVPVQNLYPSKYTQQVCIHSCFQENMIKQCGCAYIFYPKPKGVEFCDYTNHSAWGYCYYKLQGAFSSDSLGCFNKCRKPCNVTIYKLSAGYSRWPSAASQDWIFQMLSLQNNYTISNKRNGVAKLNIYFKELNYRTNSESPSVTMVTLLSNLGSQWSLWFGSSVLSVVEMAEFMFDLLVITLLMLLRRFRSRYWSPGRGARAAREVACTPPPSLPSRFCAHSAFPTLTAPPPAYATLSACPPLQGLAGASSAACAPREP
T1 sequence (H0VNV9 1-640): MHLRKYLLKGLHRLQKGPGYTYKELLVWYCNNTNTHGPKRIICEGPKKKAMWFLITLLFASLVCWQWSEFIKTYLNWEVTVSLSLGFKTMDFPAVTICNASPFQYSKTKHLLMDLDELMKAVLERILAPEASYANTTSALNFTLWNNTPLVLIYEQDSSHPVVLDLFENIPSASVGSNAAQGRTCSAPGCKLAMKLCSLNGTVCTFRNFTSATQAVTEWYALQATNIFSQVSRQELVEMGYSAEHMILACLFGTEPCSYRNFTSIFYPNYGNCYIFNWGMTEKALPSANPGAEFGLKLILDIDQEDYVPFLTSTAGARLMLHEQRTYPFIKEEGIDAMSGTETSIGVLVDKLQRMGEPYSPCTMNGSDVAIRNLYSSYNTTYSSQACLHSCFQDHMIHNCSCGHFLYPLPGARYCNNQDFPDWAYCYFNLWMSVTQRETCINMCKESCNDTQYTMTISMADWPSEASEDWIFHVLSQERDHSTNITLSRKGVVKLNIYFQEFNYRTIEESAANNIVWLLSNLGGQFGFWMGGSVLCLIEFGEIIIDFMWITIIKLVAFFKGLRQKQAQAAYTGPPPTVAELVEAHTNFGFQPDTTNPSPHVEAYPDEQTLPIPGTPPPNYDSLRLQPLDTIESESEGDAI
T1 sequence (H0UT09 1-653): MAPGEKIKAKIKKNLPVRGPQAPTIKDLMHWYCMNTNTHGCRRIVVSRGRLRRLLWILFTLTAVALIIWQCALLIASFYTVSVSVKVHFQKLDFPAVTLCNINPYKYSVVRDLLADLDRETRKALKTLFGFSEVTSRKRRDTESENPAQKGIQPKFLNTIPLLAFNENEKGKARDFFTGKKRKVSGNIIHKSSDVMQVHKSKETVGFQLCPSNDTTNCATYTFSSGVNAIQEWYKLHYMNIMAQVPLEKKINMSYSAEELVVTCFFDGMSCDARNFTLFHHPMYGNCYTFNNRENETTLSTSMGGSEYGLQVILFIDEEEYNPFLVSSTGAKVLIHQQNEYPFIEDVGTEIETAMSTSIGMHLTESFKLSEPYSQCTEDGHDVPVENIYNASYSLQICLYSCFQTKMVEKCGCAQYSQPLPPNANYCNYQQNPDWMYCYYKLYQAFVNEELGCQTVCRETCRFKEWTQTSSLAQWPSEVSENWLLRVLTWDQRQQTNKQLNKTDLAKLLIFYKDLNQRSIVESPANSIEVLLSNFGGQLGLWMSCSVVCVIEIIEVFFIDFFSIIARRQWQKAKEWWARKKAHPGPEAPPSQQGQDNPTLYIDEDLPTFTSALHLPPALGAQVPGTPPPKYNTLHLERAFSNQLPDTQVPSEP
Description: two-electrode voltage clamp, Xenopus oocytes, concentration-response. It counts as cell-based. For orientation: Two-electrode voltage clamp is typically applied to oocytes expressing channels or transporters.

The target of the next experiment is T2, guinea pig δβγ-ENaC (Cavia porcellus, UniProt H0UT09+H0VJS1+H0VNV9).
T2 construct: gene Scnn1d; heterotrimer in Xenopus laevis oocytes; δ with fused exons 11/12
T2 sequence (H0VJS1 1-618): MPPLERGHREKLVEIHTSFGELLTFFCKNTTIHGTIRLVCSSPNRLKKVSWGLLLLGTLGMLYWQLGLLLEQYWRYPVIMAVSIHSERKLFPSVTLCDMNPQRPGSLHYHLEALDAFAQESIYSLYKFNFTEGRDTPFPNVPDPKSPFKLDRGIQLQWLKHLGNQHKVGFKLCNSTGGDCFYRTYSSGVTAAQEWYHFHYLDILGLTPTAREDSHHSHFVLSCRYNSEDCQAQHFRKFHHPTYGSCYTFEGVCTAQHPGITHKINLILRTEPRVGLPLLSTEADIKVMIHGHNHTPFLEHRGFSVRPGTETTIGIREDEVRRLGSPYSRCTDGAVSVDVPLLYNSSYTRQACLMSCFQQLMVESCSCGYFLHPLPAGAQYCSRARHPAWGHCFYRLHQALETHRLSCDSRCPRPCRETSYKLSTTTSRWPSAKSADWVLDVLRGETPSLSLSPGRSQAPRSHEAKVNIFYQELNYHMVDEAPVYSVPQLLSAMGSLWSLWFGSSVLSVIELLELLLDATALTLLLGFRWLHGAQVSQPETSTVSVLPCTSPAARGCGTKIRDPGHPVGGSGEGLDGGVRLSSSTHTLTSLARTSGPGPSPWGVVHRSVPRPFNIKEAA
T2 sequence (H0VNV9 1-640): T1 sequence (H0VNV9 1-640)
T2 sequence (H0UT09 1-653): T1 sequence (H0UT09 1-653)
The experiment is described as above. The note with it: channel block; -60 mV; ORS 90 mM NaCl, pH 7.4, room temperature. Type of experiment: cell-based.

Usually IC50 stands for the concentration at which inhibition is half-maximal. The low end stands for greater potency in that assay, the high end for weaker potency in that assay. As to `N=C(N)NC(=O)c1nc(Cl)c(N)nc1N` [amiloride], the IC50 amounted to 150 ± 20 nM against guinea pig αβγ-ENaC and 240 ± 50 nM at guinea pig δβγ-ENaC.
